According to article PMC11583597, “Brain uptake pharmacokinetics of albiglutide, dulaglutide, tirzepatide, and DA5-CH in the search for new treatments of Alzheimer’s and Parkinson’s diseases” (Tissue Barriers, 2023):

Tests used:
[1] = cited from earlier work; for Brain influx within 1 h of iv injection (detection): mouse iv, radiolabeled IRA, earlier study
Description: The unidirectional blood-to-brain influx rate (Ki) calculated from Figure 2c for all four IRAs tested is graphed with previously calculated Ki’s for other IRAs[50] in Figure 3 by rank.

[2] = IRAs of the earlier study; cited from earlier work
Description: The rank order of IRAs showing significant brain uptake 1 h after iv injection with respect to AUCs is similar, but not identical to the rank order of their Ki’s (see Figures 5b and 3b). Less similar is the rank order of IRAs for uptake into brain parenchyma defined as the percent reaching the brain that was in its parenchyma vs. its capillaries. The rank order of parenchymal uptake was specifically DA4-JC (89.7%) = albiglutide (BAF) (89.4%) > DA3-CH (86%) > exenatide (84.2%) > Peptide 17 (73.2%) > lixisenatide (66.8%) > dulaglutide (BAF) (61.8%) > DA5-CH (57.6%) > Peptide 21 (43.6%) > liraglu ...

[3] = Long-term (6 h) measurement of brain uptake; type: in vivo, male CD-1 mice; conditions: mouse iv 125I-IRA, 6 h circulation; corrected for vascular space and degradation; estimated
Description: Substances that are enzymatically stable in blood and have slow clearance from the circulation can slowly enter the brain using the extracellular pathways.[63],[64] […] Albumin enters the brain by extracellular pathways,[70] and so we used albumin in two ways: we used ^99mTc-Alb circulating for 10 min to measure vascular space and ^99mTc-Alb circulating for 6 h to measure brain uptake by extracellular pathways. This is similar to the time-differential methodology developed by Poduslo and Curran to measure a substance’s vascular space and its uptake rate.[71] Following anesthetization, the jugular vein and right carotid artery were exposed. Mice were given an iv injection of 0.1% BSA-LR containing 1 × 10^6 cpm of ^125I-IRA or 5 × 10^5 cpm of ^99mTc-Alb, which circulated for 6 h. Mice receiving only the ^125I-IRA were given an injection of 5 × 10^5 cpm of ^99mTc-Alb 10 min prior to the end of the 6 h circulation time to act as a vascular marker. A separate set of mice received an iv injection of both 1 × 10^6 cpm of ^125I-IRA and 5 × 10^5 cpm of ^99mTc-Alb that circulated for 10 min. Following the 10 min or 6 h circulation time points, blood and brain were collected as described above. Thus, we had B/S ratios for ^99mTc-Alb measuring vascular space (10 min circulation time) and B/S ratios for ^99mTc-Alb measuring vascular space plus uptake by the extracellular pathways (6 h circulation time) which could be compared to the B/S ratios for the ^125I-IRAs after 10 min and 6 h of circulation.
Immediately after counting the radioactivity, the blood and brains from the 10 min and 6 h time points were processed as described in Section 2.5 for in vivo stability. For further comparison, data from the 1 h time point were taken from the original pharmacokinetic uptake study. The ^125I-IRA brain % acid precipitation (%AP) was divided by the ^125I-IRA serum %AP at each time point to calculate the %AP B/S ratio. This value was multiplied by the B/S ratio for each ^125I-IRA to correct for degradation over the 10 min, 1 h, or 6 h time periods. […]

[4] = reported; cited from earlier work
[5] = rat, 1 hour after iv, LC-MS/MS, mean, cited from earlier work
Description: This may reflect in part the sensitivity of our method using small amounts of radiolabeled peptides given the results of a recent study on semaglutide. That study used a novel liquid chromatography-tandem mass spectroscopy (LC-MS/MS) method to measure brain levels of semaglutide in adult male Sprague-Dawley rats injected iv 1 hour earlier with about […] of the unlabeled drug per animal. Detectable ...

| Compound | Brain influx within 1 h of iv injection (detection) [1] | Percent reaching the brain that was in parenchyma vs. capillaries [2] [%] | Amount present in brain at 6 h (AP corrected delta %Inj/g) [3] [%Inj/g] | half-lives in human serum [4] | semaglutide level in the cerebrum ([5]; cerebrum = cerebral cortex + striatum + amygdala + olfactory bulb) [ng/g] | semaglutide level in the cerebellum [5] [ng/g] | semaglutide level in the hypothalamus [5] [ng/g] | semaglutide level in the brain as a whole ([5]; no vascular wash-out) [ng/g] | Blood to Brain Unidirectional Influx Rate (Ki) ([1]; mouse, in vivo, iv) [µL/g/min] |
| --- | --- | --- | --- | --- | --- | --- | --- | --- | --- |
| CCCCCCCCCCCCCCCC(=O)N[C@@H](CCC(=O)NCCCC[C@H](NC(=O)[C@H](C)NC(=O)[C@H](C)NC(=O)[C@H](CCC(N)=O)NC(=O)CNC(=O)[C@H](CCC(=O)O)NC(=O)[C@H](CC(C)C)NC(=O)[C@H](Cc1ccc(O)cc1)NC(=O)[C@H](CO)NC(=O)[C@H](CO)NC(=O)[C@@H](NC(=O)[C@H](CC(=O)O)NC(=O)[C@H](CO)NC(=O)[C@@H](NC(=O)[C@H](Cc1ccccc1)NC(=O)[C@@H](NC(=O)CNC(=O)[C@H](CCC(=O)O)NC(=O)[C@H](C)NC(=O)[C@@H](N)Cc1cnc[nH]1)[C@@H](C)O)[C@@H](C)O)C(C)C)C(=O)N[C@@H](CCC(=O)O)C(=O)N[C@@H](Cc1ccccc1)C(=O)N[C@H](C(=O)N[C@@H](C)C(=O)N[C@@H](Cc1c[nH]c2ccccc12)C(=O)N[C@@H](CC(C)C)C(=O)N[C@H](C(=O)N[C@@H](CCCNC(=N)N)C(=O)NCC(=O)N[C@@H](CCCNC(=N)N)C(=O)NCC(=O)O)C(C)C)[C@@H](C)CC)C(=O)O [Liraglutide] | did not detect brain influx | 28.7 | 0.03 | 11 to 13 h |  |  |  |  |  |
| CC[C@H](C)[C@H](NC(=O)[C@H](Cc1ccccc1)NC(=O)[C@H](CCC(=O)O)NC(=O)[C@H](CCCCNC(=O)COCCOCCNC(=O)COCCOCCNC(=O)CC[C@H](NC(=O)CCCCCCCCCCCCCCCCC(=O)O)C(=O)O)NC(=O)[C@H](C)NC(=O)[C@H](C)NC(=O)[C@H](CCC(N)=O)NC(=O)CNC(=O)[C@H](CCC(=O)O)NC(=O)[C@H](CC(C)C)NC(=O)[C@H](Cc1ccc(O)cc1)NC(=O)[C@H](CO)NC(=O)[C@H](CO)NC(=O)[C@@H](NC(=O)[C@H](CC(=O)O)NC(=O)[C@H](CO)NC(=O)[C@@H](NC(=O)[C@H](Cc1ccccc1)NC(=O)[C@@H](NC(=O)CNC(=O)[C@H](CCC(=O)O)NC(=O)C(C)(C)NC(=O)[C@@H](N)Cc1cnc[nH]1)[C@@H](C)O)[C@@H](C)O)C(C)C)C(=O)N[C@@H](C)C(=O)N[C@@H](Cc1c[nH]c2ccccc12)C(=O)N[C@@H](CC(C)C)C(=O)N[C@H](C(=O)N[C@@H](CCCNC(=N)N)C(=O)NCC(=O)N[C@@H](CCCNC(=N)N)C(=O)NCC(=O)O)C(C)C [Semaglutide] | did not detect brain influx |  | 0.022 | ~ 160 h | 7.7 | 12.6 | 27 | 12.0 |  |
| lixisenatide: FDA-approved IRA tested in the earlier study (ref 50) |  | 66.8 |  |  |  |  |  |  | 0.3271 |
